Test results from US6472516B1, “Progestin-regulated gene” (The Garvan Institute of Medical Research, priority 1995, dated 2002).
Marks after values point to notes of the source that are not given here. Numbered stars: 1 amine (or outer) side, 2 acyl side, 3 side chain; on linkers, the order of the positions; unused ones are H or OH. Bridge positions count the residues as written; N and C are the ends. Square brackets hold non-standard residues; d marks the D form. Peptide text beside a SMILES is read from it. I, II: the chains in the order shown. Actinocin(9to1) = Cc1c2oc3c(C)ccc(C(=O)[*:1])c3nc-2c(C(=O)[*:2])c(N)c1=O; NMeV = CN[C@H](C(=O)O)C(C)C; Sar = CNCC(=O)O

Legend:
PRG1 mRNA [1] = experiment: Northern analysis of PRG1 mRNA expression in MCF-7 cells; assay type: cell-based, human
Description: (§1) The sources and maintenance of the human breast cancer cell lines used in this study were as described previously (33). 184 and 184B5 normal breast epithelial cells were the kind gift of Dr. M. Stampfer (University of California, Berkley, Calif.) and were maintained in mammary epithelial growth medium (Clonetics, San Diego, Calif.). Tissue culture experiments in serum-free medium were performed as previously described (6, 27). Briefly, T-47D cells were taken from stock cultures and passaged for 6 days in phenol red-free RPMI medium supplemented with 10% charcoal-treated fetal calf serum (FCS). During this time the cells received two changes of medium at 1- to 3-day intervals. The cells were replated into replicate 150 cm^2 flasks in medium containing 10% charcoal-treated FCS and the medium replaced with serum-free medium on the next two days. Serum-free medium was supplemented with 300 nM human transferrin. In experiments involving ORG 2058 the final serum-free medium contained 10 μg/ml (1.7 μM) human insulin. Three days after completion of these pre-treatments growth factor, steroid, steroid antagonist or cycloheximide were added. Control flasks received vehicle to the same final concentration. Cell cycle phase distribution was determined by analytical DNA flow cytometry, as previously described (6, 34).
(§2) Tissue culture experiments in serum-containing medium were performed as previously described (34). The experiment with livial and actinomycin D was as for experiments in serum-containing medium except that the medium contained 5% charcoal-treated FCS. Actinomycin D was added at the same time as livial. The experiment involving “estrogen rescue” was performed as described (30). […]
(§3) Cells harvested from triplicate 150 cm^2 flasks were pooled and RNA extracted by a guanidinium-isothiocyanate-cesium chloride procedure and Northern analysis was performed as previously described with 20 μg of total RNA per lane (6, 11). […] The mRNA abundance was quantified by densitometric analysis of autoradiographs using Molecular Dynamics Densitometer and software (Molecular Dynamics, Sunnyvale, Calif.). […]

PRG1 mRNA [2] = experiment: Northern analysis of PRG1 mRNA expression in MDA-MB-231 cells; assay type: cell-based, human
Description: as §1, §2, §3

PRG1 mRNA [3] = experiment: Northern analysis of PRG1 mRNA expression in T-47D cells; assay type: cell-based, human; conditions: for Induction of PRG1 mRNA by mitogen: T-47D growth-arrested by serum deprivation, 3 or 4 h, insulin 1.7 μM, heregulin 5 nM, bFGF 55 pM; for Relative mRNA Expression: relative to cells maintained in serum-free medium
Description: as §1
Tissue culture experiments in serum-containing medium were performed as previously described (34). The experiment with livial and actinomycin D was as for experiments in serum-containing medium except that the medium contained 5% charcoal-treated FCS. Actinomycin D was added at the same time as livial. The experiment involving “estrogen rescue” was performed as described (30). Briefly, MCF-7 cells were cultured in medium containing 5% FCS for 2 days. The antiestrogen ICI 182780 (10 nM) was then added to the medium for 48 h. after which the growth-arrested cells were treated with 100 nM 17β-estradiol, also added directly to the medium, resulting in the synchronous re-entry of cells into the cell cycle.
Cells harvested from triplicate 150 cm^2 flasks were pooled and RNA extracted by a guanidinium-isothiocyanate-cesium chloride procedure and Northern analysis was performed as previously described with 20 μg of total RNA per lane (6, 11). The membranes were hybridized overnight at 50° C. with probes labelled with [α-^32P]dCTP (Amersham Australia Pty Ltd, Castle Hill, Australia) using the Random Prime Labelling Kit (Promega, Sydney, Australia). The membranes were washed at a highest stringency of 0.2× SSC (30 mM NaCl. 3 mM sodium citrate [pH 7.0])+ 1% sodiwn dodecyl sulfate at 65° C. and exposed to Kodak X-OMAT or BIOMAX film at −70° C. Human multiple tissue Northern blots (Clontech Laboratories, Inc. Palo Alto, Calif.) were hybridized under conditions recommended by the manufacturer. The mRNA abundance was quantified by densitometric analysis of autoradiographs using Molecular Dynamics Densitometer and software (Molecular Dynamics, Sunnyvale, Calif.). The accuracy of loading was estimated by hybridizing membranes with a [γ-^32P]ATP end-labelled oligonucleotide complementary to 18S rRNA.

T-47D cells = conditions: previously reported (refs 32, 54); cited from earlier work
[4] = T-47D, insulin-supplemented serum-free medium, 10 nM

Question: For `C[C@]12CC[C@@H]3c4ccc(O)cc4CC[C@H]3[C@@H]1CC[C@@H]2O` [17β-estradiol], which “Relative mRNA Expression” value (PRG1 mRNA [1]; MCF-7, at 4 h, after ICI 182 780 pre-treatment for 48 h, relative to antiestrogen treated control) is on record?
Answer: The value was 2.0^‡ at 4 h.

Question: What about the “Induction of PRG1 mRNA by estrogen rescue” value (PRG1 mRNA [1]; MCF-7 growth-arrested by ICI 182780 (10 nM, 48 h), then 100 nM 17β-estradiol, 4 h) of the same compound?
Answer: The value was 2.0 fold.

Question: With `CCC1CC2C3CCC4=CC(=O)CCC4C3CCC2(C)C1C(=O)CO` (stereo not drawn) [ORG 2058, 16α-ethyl-21-hydroxy-19-norpregn-4-en-3,20-dione] as the compound, how does the “PRG1 mRNA decrease below control mRNA levels” value (PRG1 mRNA [2]; MDA-MB-231 (PR-negative), 10 nM, 3 h) read?
Answer: Its value is “approximately 30%”.

Question: What about the “PRG1 mRNA level at 6 h after the decrease at 3 h (in words)” value (PRG1 mRNA [2]; MDA-MB-231, 6 h, ORG 2058 10 nM, dexamethasone 100 nM) of the same compound?
Answer: The value was “recovery”.

Question: And the “Superinduction of PRG1 mRNA relative to control” value (PRG1 mRNA [3]; T-47D, ORG 2058 10 nM in presence of cycloheximide 20 μg/ml, 3 h, experiment of FIG. 8)?
Answer: The value was 12 fold.

Question: And the “Time by which PRG1 mRNA had returned to control levels” value (PRG1 mRNA [3]; [4])?
Answer: Its value is no more than 12 h.

Question: And the “Time of maximal PRG1 mRNA induction” value (PRG1 mRNA [3]; [4])?
Answer: Its value is 3 h.

Question: What about the “Maximal PRG1 mRNA induction relative to time-matched control” value (PRG1 mRNA [3]; T-47D, insulin-supplemented serum-free medium, 10 nM, 3 h, experiment of FIG. 5) of the same compound?
Answer: The value was 4.4 fold.

Question: And the “PRG1 mRNA increase above control mRNA levels” value (PRG1 mRNA [1]; MCF-7 (PR-positive), 5% FCS, 10 nM, 3 h)?
Answer: The value was “approximately 2 fold”.

Question: For `CC#C[C@]1(O)CC[C@H]2[C@@H]3CCC4=CC(=O)CCC4=C3[C@@H](c3ccc(N(C)C)cc3)C[C@@]21C` [RU 486], which “Effect on PRG1 mRNA levels, compound alone” value (PRG1 mRNA [3]; T-47D, serum-free medium with insulin, 100 nM, 3 h) is on record?
Answer: The value was “no effect”.

Question: Which “Effect on progestin induction of PRG1 mRNA” value (PRG1 mRNA [3]; T-47D, actinomycin D 5 μg/ml with livial 10 nM) does the source give for `Cc1c2oc3c(C)ccc(C(=O)N[C@@H]4C(=O)N[C@H](C(C)C)C(=O)N5CCC[C@H]5C(=O)N(C)CC(=O)N(C)[C@@H](C(C)C)C(=O)O[C@@H]4C)c3nc-2c(C(=O)N[C@@H]2C(=O)N[C@H](C(C)C)C(=O)N3CCC[C@H]3C(=O)N(C)CC(=O)N(C)[C@@H](C(C)C)C(=O)O[C@@H]2C)c(N)c1=O` [actinomycin D] (I: T[dV]P[Sar][NMeV] / II: T[dV]P[Sar][NMeV]; ester I:1-I:C, II:1-II:C; linker I:N-II:N via Actinocin(9to1)) here?
Answer: The value was “blocked”.

Question: For `C[C@@H]1C[C@@H]([C@H](O)CC2CC(=O)NC(=O)C2)C(=O)[C@@H](C)C1` [cycloheximide, Cycloheximide], which “Effect on PRG1 mRNA, compound alone” value (PRG1 mRNA [3]; T-47D, cycloheximide 20 μg/ml alone, 3 h) is on record?
Answer: The value was “increase of PRG1 mRNA to a level similar to that achieved by ORG 2058 alone”.

Question: What about the “Effect on progestin-mediated induction of PRG1 mRNA” value (PRG1 mRNA [3]; T-47D, cycloheximide 20 μg/ml with ORG 2058 10 nM, 3 h) of the same compound?
Answer: Its value is “failed to block”.

Question: Which “PRG1 mRNA as percent of control levels” value (PRG1 mRNA [2]; MDA-MB-231, 100 nM, 3 h) does the source give for `C[C@@H]1C[C@H]2[C@@H]3CCC4=CC(=O)C=C[C@]4(C)[C@@]3(F)[C@@H](O)C[C@]2(C)[C@@]1(O)C(=O)CO` [dexamethasone, 9-fluro-11,17,21-trihydroxy-16-methylpregn-1,4-diene-3,20-dione] here?
Answer: The value was “approximately 60 % of control”.

Question: What does the source list for `C#C[C@]1(O)CC[C@H]2[C@@H]3[C@H](C)CC4=C(CCC(=O)C4)[C@H]3CC[C@@]21C` [livial, (7α, 17α)-17-hydroxy-7-methyl-19-norpregn-5(10)-en-20-yn-3-one]?
Answer: PRG1 mRNA induction (in words) (PRG1 mRNA [3]; T-47D, 5% charcoal-treated FCS, 10 nM): induced; PRG1 mRNA induction in presence of transcription inhibitor (PRG1 mRNA [3]; T-47D, 5% charcoal-treated FCS, livial 10 nM with actinomycin D 5 μg/ml): not induced

Question: With bFGF: human recombinant bFGF as the compound, how does the “Induction of PRG1 mRNA by mitogen” value (PRG1 mRNA [3]) read?
Answer: The value was 1.9 fold.

Question: What about the “Relative mRNA Expression” value (PRG1 mRNA [3]; T-47D, at 3 h) of the same compound?
Answer: The value was 2.6^† at 3 h.

Question: What about the “Potency as mitogen in stimulating cell cycle progression” value (T-47D cells) of the same compound?
Answer: The value was “equipotent”.

Question: For heregulin, which “Induction of PRG1 mRNA by mitogen” value (PRG1 mRNA [3]) is on record?
Answer: Its value is 2.6 fold.

Question: And the “Relative mRNA Expression” value (PRG1 mRNA [3]; T-47D, at 4 h)?
Answer: The value was 1.9^† at 4 h.

Question: And the “Potency as mitogen in stimulating cell cycle progression” value (T-47D cells)?
Answer: The value was “one of the most potent mitogens”.

Question: What does the source list for “insulin: human insulin, Actrapid; CSL-Novo”?
Answer: Induction of PRG1 mRNA by mitogen (PRG1 mRNA [3]): 2.8 fold; Relative mRNA Expression (PRG1 mRNA [3]; T-47D, at 4 h): 2.8^† at 4 h; Potency as mitogen in stimulating cell cycle progression (T-47D cells): equipotent
